Where “and” joins values, the source holds several entries; their conditions need not be identical. Equal entries are not always repeated.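 Each compound was tested at five concentrations against cells in 96-well plates for 48 hours. Here, GI50 denotes the concentration required for 50% inhibition of growth. TGI marks complete inhibition of growth.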

What all share (assay): growth of human tumour cells (NCI), 48 h
Test [1] concerns ACHN renal.
Test [2] relates to NCI-H522 lung.
Test [3] concerns OVCAR-8 ovarian.
Test [4] concerns SNB-75 CNS.
In test [5] the test system is U251 CNS.
In test [6] the test system is UO-31 renal.
Test [7] deals with RPMI-8226 leukemia.
The subject of test [8] is SNB-19 CNS.
Test [9] has as its system MDA-MB-231 breast.

Take `Cc1cc(N(CCC#N)CCC#N)ccc1N=Nc1ccccc1[N+](=O)[O-]`: the TGI in [1], in test [2], in test [3], in test [4], in [5] and in test [6] was above 100 µM each time.
Turning to `CC1=CCP(C(F)(F)F)P(C(F)(F)F)C1` (stereo not given), the TGI in test [1], in [2], in test [3], in test [7], in test [8] and in test [4] was above 100 µM throughout. In addition, the TGI in test [5] and in test [6] was above 100 µM throughout.
As for `C=CC[P@@]1(=O)O[C@H](c2ccccc2)C(C)N1C(C)C` (stereo not given in full), the TGI in test [1], in test [3], in [7], in test [8], in test [4] and in [5] was above 100 µM throughout. Moreover, the TGI in test [6] was above 100 µM.
In the case of `COC(=O)C1Cc2c(n(C)c3ccccc23)C(c2ccccc2)N1` (stereo not given), the TGI in [1] is above 100 µM; in [2], 93.1 µM; in test [3] it was above 100 µM; in test [7], above 100 µM; in test [8] it was above 100 µM; in test [4] it was above 100 µM. Besides, the TGI in test [5] and in [6] was above 100 µM in each case.
For `CC(C)(C)c1ccc(Oc2ccc(C#N)c(C#N)c2)c(C(C)(C)C)c1`, the TGI in [1] is above 100 µM; in [2], 60.6 µM; in [3], above 100 µM; in [7], 43.1 µM; in [8], above 100 µM; in test [4] it was above 100 µM. For the same compound, the TGI was above 100 µM in [5] and above 77.7 µM in test [6].
Turning to `O=C(c1ccccc1)c1ccc2cccc(O)c2n1`, the TGI in [1] is above 100 µM; in test [2] it was 39.8 µM; in test [3] it was 71.9 µM; in [7] it was above 100 µM; in test [8], above 100 µM; in test [4], above 100 µM. In addition, the results for the TGI in test [5] and in test [6] were 68.3 µM and above 100 µM, respectively.
For `COc1c(O)cc2oc3cc(O)c(CC=C(C)C)c(O)c3c(=O)c2c1C/C=C(\C)CCC=C(C)C`, the GI50 in test [1] was 4.98 µM; in test [9], 5.61 µM; in test [2], 5.92 µM; in test [3] it was 5.45 µM; in [7] it was 10.6 µM; in [8], 6.51 µM. Besides, the GI50 in [4] was 3.58 µM; in test [5] it was 5.89 µM; in test [6] it was 4.62 µM. The TGI amounted to 9.4 µM in test [1]; 11.2 µM in [9]; 10.8 µM in [2]; 10.6 µM in test [3]; 31.3 µM in [7]; 12 µM in test [8]. The TGI in [4] was determined as 7.46 µM; in test [5], 10.6 µM; in [6] it was 8.97 µM.
As to `COc1c2c(c(OC)c3c(=O)cc(C/C(=N/NC(=O)C[n+]4ccccc4)C(=O)Nc4cc(C)ccc4C)oc13)OCO2`, the TGI in test [1], in test [2], in [3], in test [7], in [8] and in test [4] was above 100 µM each time. Further, the TGI in test [5] and in test [6] was above 100 µM each time.
As for `O=C1C2c3[nH]c4ccccc4c3C3CCSCC3C2C(=O)N1c1ccccc1` (stereo not given), the TGI in test [1] was above 100 µM; in test [2] it was above 100 µM; in test [3], above 100 µM; in test [7], above 100 µM; in test [8], above 100 µM; in test [4], 44.7 µM. Also, the TGI in [5] and in test [6] was above 100 µM throughout.
Regarding `Cc1ccc(C)c(NC(=O)CC2C(=O)Nc3ccccc3S2(=O)=O)c1` (stereo not given), the TGI in test [1] is above 100 µM; in [3] it was above 100 µM; in test [7], above 100 µM; in test [8] it was above 100 µM; in [4], 45.7 µM; in [5], above 100 µM. For the same compound, the TGI in [6] was above 100 µM.
As for `COCC1N=C(c2ccc(OC)c(OCc3ccccc3)c2OC)O[C@H]1c1ccccc1` (stereo not given in full), the TGI was 52.4 µM in test [1]; 69.3 µM in [2]; above 100 µM in test [3]; 36.9 µM in test [7]; above 100 µM in [8]; above 100 µM in [4]. The TGI in [5] turned out to be 60.6 µM; in [6], 30.1 µM.
As for `N.N.NCCCCN.O=C([O-])CC(=O)[O-].O=C([O-])CC(=O)[O-].[Pt+4].[Pt+4]`, the GI50 in test [1] is 26.9 µM; in test [2], 18.2 µM; in test [3], above 100 µM; in test [7], above 100 µM; in [8], above 100 µM; in test [4] it was above 100 µM. In addition, the GI50 in test [5] was 48.5 µM; in [6], 59.4 µM. Also, the TGI in test [1] was above 100 µM; in [2], 62.5 µM; in test [3], above 100 µM; in test [7] it was above 100 µM; in test [8] it was above 100 µM; in [4], above 100 µM. Moreover, the TGI in test [5] and in [6] was above 100 µM each time.
For `N#C[C@]12CC3(CC[C@H]1CC1(C2)OCCO1)OCCO3`, the TGI in test [1], in test [2], in test [3], in test [7], in test [8] and in [4] was above 100 µM throughout. Moreover, the TGI in test [5] and in [6] was above 100 µM each time.
As to `Brc1nc2c3ccccc3ncn2c1Br`, the TGI in [1] is 50.9 µM; in [2], 53.6 µM; in test [3], above 100 µM; in test [7], above 100 µM; in test [8], above 100 µM; in [4], 44.2 µM. Further, the TGI in [5] and in test [6] was above 100 µM in each case.
Take `Cc1c2cc[n+](C)cc2c(C)c2c1[nH]c1ccc(OC(C)C)cc12`: the TGI is above 100 µM in test [1]; 3.8 µM and 8.1 µM in test [2]; 26 µM and 18.9 µM in test [3]; 36.9 µM and > 60.5 µM in [7]; 5.6 µM and 14.3 µM in test [8]; 0.82 µM and 1.99 µM in test [4]. Further, the TGI is 2.93 µM and 9.46 µM in [5]; above 100 µM in test [6]. Further, the GI50 in test [3] is 0.649 µM and 1.61 µM; in test [8], 0.776 µM and 1.91 µM; in test [5], 0.145 µM and 0.39 µM.
Regarding `CCCCCCC(O)C/C=C/CCCCCC/C(C(=O)OC)=C(/O)C(=O)OCC` (stereo not given), the TGI in test [1], in [2], in [3], in test [7], in [8] and in test [4] was above 100 µM throughout. In addition, the TGI in test [5] and in [6] was above 100 µM each time.
As to `O=C(Nc1ccccc1)O/N=C1/CCCC/C1=C\c1ccccc1`, the TGI in test [1] was 30.5 µM; in test [2], 30.4 µM; in [3] it was 42.8 µM; in test [7] it was 52.5 µM; in test [4] it was 28.6 µM; in test [5], 30.2 µM. In test [6], this compound displayed a TGI of 27 µM.
As to `CC(=O)CC(=O)CCCC(=O)Nc1ccc(Cl)cc1Cl`, the TGI in [1], in test [2], in test [3], in test [7], in [8] and in test [4] was above 100 µM each time. The compound also gave a TGI in [6] above 100 µM.
On to `O=[N+]([O-])c1ccc(OCCNc2cccc3ccccc23)cc1`, for which the TGI in test [1], in [2], in [3], in [7], in [8] and in test [4] was above 100 µM each time. For the same compound, the TGI in test [5] and in [6] was above 100 µM throughout.
`CC(C)SC1SCC2C(=O)N(C)C3(CC3C)C(=O)OCC(NC(=O)c3nc4ccccc4cc3O)C(=O)NC(C)C(=O)N(C)C1C(=O)N(C)C1(CC1C)C(=O)OCC(NC(=O)c1nc3ccccc3cc1O)C(=O)NC(C)C(=O)N2C` (stereo not given): the TGI in test [1] was above 100 µM; in test [9], above 100 µM; in test [2], below 0.0001 µM; in test [7], below 0.0001 µM; in test [5], below 0.0001 µM; in test [6], below 0.0001 µM.
As to `CC1(c2ccccc2)CC12C(=O)NC(=O)NC2=O` (stereo not given), the TGI in test [1], in test [2], in test [3], in test [7], in test [8] and in test [5] was above 100 µM throughout. In test [6], the TGI is above 100 µM.
For `O=C(Nc1cccc(C2=NCCN2)c1)c1ccc(OCCCOc2ccc(C(=O)Nc3cccc(C4=NCCN4)c3)cc2)cc1`, the GI50 in test [1] was 21.8 µM; in test [3], 4.03 µM; in [8], 2.69 µM; in test [6], 13.5 µM. Moreover, the TGI in test [1], in test [3], in [8] and in test [6] was above 100 µM each time.
`O=C1NC(=O)C2=C1CCC2O` (stereo not given): the TGI in [1], in test [9], in test [3], in test [7], in test [8] and in test [4] was above 100 µM in each case. The TGI in test [5] and in [6] was above 100 µM throughout.
Take `CC1=C2C(=CC(C)(CO)C2O)C(=O)C(C)(O)C12CC2` (stereo not given): the TGI in test [1] was 0.0132 µM; in test [2], 0.00421 µM; in test [3], 0.0127 µM; in test [8], 0.0422 µM; in test [4], 0.0165 µM; in test [5], 0.0211 µM. In [6], this compound displayed a TGI of 0.039 µM. In addition, the GI50 is 0.00088 µM in [2], 0.00576 µM in [4] and 0.0164 µM in test [6].
For `NC(=O)c1csc(C2O[C@@H](COP(=O)(O)OP(=O)(O)OC[C@H]3OC(n4cnc5c(N)ncnc54)[C@H](O)[C@@H]3O)[C@H](O)[C@@H]2O)n1` (stereo not given in full), the TGI in test [1], in [2], in test [3], in test [7], in [8] and in test [4] was above 100 µM each time. The TGI in test [5] and in test [6] was above 100 µM each time.
For the compound `CC(C)(C)C(=O)Nc1ccccc1Br`, the TGI in [1], in test [3], in [7], in test [8], in test [4] and in test [5] was above 100 µM throughout. Besides, in test [6], the TGI was above 100 µM.
With `COC(=O)C(=O)C(C(=O)C(=O)Nc1ccc([N+](=O)[O-])cc1[N+](=O)[O-])c1nc2ccc([N+](=O)[O-])cc2[nH]c1=O` (stereo not given), the TGI is above 100 µM in [1]; above 100 µM in test [2]; above 100 µM in test [3]; above 100 µM in test [7]; above 100 µM in [8]; 84.9 µM in [4]. Moreover, the TGI in test [5] and in [6] was above 100 µM each time.
For the compound `O=C1C(c2ccc(Cl)cc2)=[N+]([O-])c2ccccc21`, the TGI in test [1] was 28.5 µM; in [2], 21.9 µM; in test [3], 25 µM; in test [7] it was above 100 µM; in test [8] it was 53.8 µM; in test [4], 42.2 µM. The TGI in test [5] is 31.5 µM; in [6], above 100 µM.
Regarding `COC(=O)[C@H](C)[C@H]1CC[C@@](C)([C@H]2CC3C(C)(C)[C@H]4CCC(C)=C[C@H]4C[C@@]3(C)O2)OO1` (stereo not given in full), the TGI was 23.4 µM in test [1]; 3.32 µM in [2]; 26.2 µM in test [3]; 18.4 µM in test [7]; 28.2 µM in test [8]; 18.1 µM in [4]. In addition, the TGI in [5] is 26.1 µM; in test [6], 19.2 µM.

For the origin of these results see PubChem BioAssay (NCI).
